Measured values published in ChEMBL document CHEMBL1201862, “PubChem BioAssay data set” (2004).
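Cultured in 96-well plates, cells were exposed to test compound for 48 hours across five concentrations. Here, GI50 denotes the concentration required for 50% inhibition of growth.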 The source made the active and inactive calls. No stated cut-off is given here; in the data, active = GI50 up to about 1.1 µM and inactive = higher.

Key:
Assay in all cases: NCI anticancer screen, dose series, 48 h
786-0 = system: 786-0
A498 = system: A498
A549 = system: A549
ACHN = system: ACHN
BT-549 = system: BT-549
CAKI-1 = system: CAKI-1
CCRF-CEM = system: CCRF-CEM
COLO 205 = system: COLO 205
DU-145 = system: DU-145
EKVX = system: EKVX
HCC 2998 = system: HCC 2998
HCT-116 = system: HCT-116
HCT-15 = system: HCT-15
HL-60 = system: HL-60
HOP-62 = system: HOP-62
HOP-92 = system: HOP-92
HT-29 = system: HT-29
Hs-578T = system: Hs-578T
IGROV-1 = system: IGROV-1
K562 = system: K562
KM12 = system: KM12
LOX IMVI = system: LOX IMVI
M14 = system: M14
MCF7 = system: MCF7
MDA-MB-231 = system: MDA-MB-231
MDA-MB-435 = system: MDA-MB-435
MDA-N = system: MDA-N
MOLT-4 = system: MOLT-4
Malme-3M = system: Malme-3M
NCI-H226 = system: NCI-H226
NCI-H23 = system: NCI-H23
NCI-H460 = system: NCI-H460
NCI-H522 = system: NCI-H522
NCI/ADR-RES = system: NCI/ADR-RES
OVCAR-3 = system: OVCAR-3
OVCAR-4 = system: OVCAR-4
OVCAR-5 = system: OVCAR-5
OVCAR-8 = system: OVCAR-8
PC-3 = system: PC-3
RPMI-8226 = system: RPMI-8226
RXF 393 = system: RXF 393
SF-268 = system: SF-268
SF-295 = system: SF-295
SF-539 = system: SF-539
SK-MEL-28 = system: SK-MEL-28
SK-MEL-2 = system: SK-MEL-2
SK-MEL-5 = system: SK-MEL-5
SK-OV-3 = system: SK-OV-3
SN12C = system: SN12C
SNB-19 = system: SNB-19
SNB-75 = system: SNB-75
SW-620 = system: SW-620
T47D = system: T47D
TK-10 = system: TK-10
U-251 = system: U-251
UACC-257 = system: UACC-257
UACC-62 = system: UACC-62
UO-31 = system: UO-31

## CC[C@H](C)[C@H]1NC(=O)[C@@H](NC(=O)[C@@H](CC(C)C)N(C)C(=O)C2CCCN2C(=O)[C@H](C)O)[C@@H](C)OC(=O)[C@H](Cc2ccccc2)N(C)C(=O)[C@@H]2CCCN2C(=O)[C@H](CC(C)C)NC(=O)[C@@H](C)C(=O)[C@H](C(C)C)OC(=O)C[C@@H]1O (stereo partly specified)
786-0
  GI50: < 6.25 nM (active)
A498
  GI50: < 6.25 nM (active)
A549
  GI50: < 6.25 nM (active)
ACHN
  GI50: < 6.25 nM (active)
BT-549
  GI50: < 6.25 nM (active)
CAKI-1
  GI50: < 6.25 nM (active)
CCRF-CEM
  GI50: < 6.25 nM (active)
COLO 205
  GI50: < 6.25 nM (active)
DU-145
  GI50: < 6.25 nM (active)
EKVX
  GI50: < 6.25 nM (active)
HCC 2998
  GI50: < 6.25 nM (active)
HCT-116
  GI50: < 6.25 nM (active)
HCT-15
  GI50: 7.57 nM
HL-60
  GI50: 122 nM (active)
HOP-62
  GI50: < 6.25 nM (active)
HOP-92
  GI50: < 6.25 nM (active)
HT-29
  GI50: < 6.25 nM (active)
Hs-578T
  GI50: < 6.25 nM (active)
IGROV-1
  GI50: < 6.25 nM (active)
K562
  GI50: < 6.25 nM (active)
KM12
  GI50: < 6.25 nM (active)
LOX IMVI
  GI50: < 6.25 nM (active)
M14
  GI50: < 6.25 nM (active)
MCF7
  GI50: < 6.25 nM (active)
MDA-MB-231
  GI50: < 6.25 nM (active)
MDA-MB-435
  GI50: < 6.25 nM (active)
MDA-N
  GI50: < 6.25 nM (active)
MOLT-4
  GI50: < 6.25 nM (active)
Malme-3M
  GI50: < 6.25 nM (active)
NCI-H226
  GI50: < 6.25 nM (active)
NCI-H23
  GI50: < 6.25 nM (active)
NCI-H460
  GI50: < 6.25 nM (active)
NCI-H522
  GI50: < 6.25 nM (active)
NCI/ADR-RES
  GI50: 58.9 nM (active)
OVCAR-3
  GI50: < 6.25 nM (active)
OVCAR-4
  GI50: < 6.25 nM (active)
OVCAR-5
  GI50: < 6.25 nM (active)
OVCAR-8
  GI50: < 6.25 nM (active)
PC-3
  GI50: < 6.25 nM (active)
RPMI-8226
  GI50: < 6.25 nM (active)
RXF 393
  GI50: < 6.25 nM (active)
SF-268
  GI50: < 6.25 nM (active)
SF-295
  GI50: < 6.25 nM (active)
SF-539
  GI50: < 6.25 nM (active)
SK-MEL-28
  GI50: < 6.25 nM (active)
SK-MEL-2
  GI50: < 6.25 nM (active)
SK-MEL-5
  GI50: < 6.25 nM (active)
SK-OV-3
  GI50: < 6.25 nM (active)
SN12C
  GI50: < 6.25 nM (active)
SNB-19
  GI50: < 6.25 nM (active)
SNB-75
  GI50: < 6.25 nM (active)
SW-620
  GI50: < 6.25 nM (active)
T47D
  GI50: < 6.25 nM (active)
TK-10
  GI50: < 6.25 nM (active)
U-251
  GI50: < 6.25 nM (active)
UACC-257
  GI50: < 6.25 nM (active)
UACC-62
  GI50: < 6.25 nM (active)
UO-31
  GI50: < 6.25 nM (active)

## Cn1c(=O)c2[nH]c(N=O)nc2n(C)c1=O
786-0
  GI50: > 100000 nM (inactive)
A498
  GI50: > 100000 nM (inactive)
A549
  GI50: > 100000 nM (inactive)
BT-549
  GI50: > 100000 nM (inactive)
CAKI-1
  GI50: > 100000 nM (inactive)
COLO 205
  GI50: > 100000 nM (inactive)
DU-145
  GI50: > 100000 nM (inactive)
EKVX
  GI50: > 100000 nM (inactive)
HCC 2998
  GI50: > 100000 nM (inactive)
HCT-116
  GI50: > 100000 nM (inactive)
HCT-15
  GI50: > 100000 nM
HL-60
  GI50: > 100000 nM (inactive)
HOP-62
  GI50: > 100000 nM (inactive)
HT-29
  GI50: > 100000 nM (inactive)
Hs-578T
  GI50: > 100000 nM (inactive)
IGROV-1
  GI50: > 100000 nM (inactive)
K562
  GI50: > 100000 nM (inactive)
KM12
  GI50: > 100000 nM (inactive)
LOX IMVI
  GI50: > 100000 nM (inactive)
M14
  GI50: > 100000 nM (inactive)
MCF7
  GI50: > 100000 nM (inactive)
MDA-MB-231
  GI50: > 100000 nM (inactive)
MDA-MB-435
  GI50: > 100000 nM (inactive)
MDA-N
  GI50: > 100000 nM (inactive)
MOLT-4
  GI50: > 100000 nM (inactive)
Malme-3M
  GI50: > 100000 nM (inactive)
NCI-H226
  GI50: > 100000 nM (inactive)
NCI-H23
  GI50: > 100000 nM (inactive)
NCI-H460
  GI50: > 100000 nM (inactive)
NCI-H522
  GI50: > 100000 nM (inactive)
NCI/ADR-RES
  GI50: > 100000 nM (inactive)
OVCAR-3
  GI50: > 100000 nM (inactive)
OVCAR-4
  GI50: > 100000 nM (inactive)
OVCAR-5
  GI50: > 100000 nM (inactive)
OVCAR-8
  GI50: > 100000 nM (inactive)
PC-3
  GI50: > 100000 nM (inactive)
RPMI-8226
  GI50: > 100000 nM (inactive)
RXF 393
  GI50: > 100000 nM (inactive)
SF-268
  GI50: > 100000 nM (inactive)
SF-295
  GI50: > 100000 nM (inactive)
SF-539
  GI50: > 100000 nM (inactive)
SK-MEL-28
  GI50: > 100000 nM (inactive)
SK-MEL-2
  GI50: > 100000 nM (inactive)
SK-OV-3
  GI50: > 100000 nM (inactive)
SN12C
  GI50: > 100000 nM (inactive)
SNB-75
  GI50: > 100000 nM (inactive)
SW-620
  GI50: > 100000 nM (inactive)
T47D
  GI50: > 100000 nM (inactive)
TK-10
  GI50: > 100000 nM (inactive)
U-251
  GI50: > 100000 nM (inactive)
UACC-257
  GI50: > 100000 nM (inactive)
UACC-62
  GI50: > 100000 nM (inactive)
UO-31
  GI50: > 100000 nM (inactive)
